Results from ChEMBL document CHEMBL1201862, “PubChem BioAssay data set” (2004).
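96-well plates; 48 h exposure; 5 concentrations. Endpoints by linear interpolation between flanking doses. Not reached: highest tested concentration assigned. GI50: concentration for 50% inhibition of growth.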 Active and inactive are the calls of the source. No stated cut-off is given here; in the data, active = GI50 up to about 1.1 µM and inactive = higher.

Experiments:
Assay in all cases: inhibition of tumour cell growth, NCI panel, 48 h
[1] = system: DU-145
[2] = system: Malme-3M
[3] = system: EKVX
[4] = system: UO-31
[5] = system: HOP-62
[6] = system: T47D
[7] = system: A498
[8] = system: LOX IMVI
[9] = system: NCI-H460
[10] = system: SN12C
[11] = system: OVCAR-5
[12] = system: COLO 205
[13] = system: K562
[14] = system: 786-0
[15] = system: UACC-62
[16] = system: CAKI-1
[17] = system: MDA-MB-231
[18] = system: OVCAR-4
[19] = system: MOLT-4
[20] = system: NCI-H522
[21] = system: MCF7
[22] = system: PC-3
[23] = system: HL-60
[24] = system: SR
[25] = system: SK-MEL-5
[26] = system: BT-549
[27] = system: MDA-N
[28] = system: HCT-116
[29] = system: RXF 393
[30] = system: MDA-MB-435
[31] = system: OVCAR-8
[32] = system: NCI-H226
[33] = system: U-251
[34] = system: SNB-75
[35] = system: SK-MEL-28
[36] = system: TK-10
[37] = system: SNB-19
[38] = system: NCI-H23
[39] = system: HCT-15
[40] = system: SF-268
[41] = system: SW-620
[42] = system: Hs-578T
[43] = system: HT-29
[44] = system: SF-295
[45] = system: OVCAR-3
[46] = system: IGROV-1
[47] = system: RPMI-8226
[48] = system: NCI/ADR-RES
[49] = system: HCC 2998
[50] = system: KM12
[51] = system: ACHN
[52] = system: UACC-257
[53] = system: SK-MEL-2

CCCC1CC(=O)NC(=O)C1C(=O)OC(C)(C)C (stereo not drawn)
GI50 [1]: > 100 µM (inactive)
GI50 [2]: > 100 µM (inactive)
GI50 [3]: > 100 µM (inactive)
GI50 [4]: > 100 µM (inactive)
GI50 [5]: > 100 µM (inactive)
GI50 [6]: > 100 µM (inactive)
GI50 [7]: > 100 µM (inactive)
GI50 [8]: > 100 µM (inactive)
GI50 [9]: > 100 µM (inactive)
GI50 [10]: > 100 µM (inactive)
GI50 [11]: > 100 µM (inactive)
GI50 [12]: > 100 µM (inactive)
GI50 [13]: > 100 µM (inactive)
GI50 [14]: > 100 µM (inactive)
GI50 [15]: > 100 µM (inactive)
GI50 [16]: > 100 µM (inactive)
GI50 [17]: > 100 µM (inactive)
GI50 [18]: > 100 µM (inactive)
GI50 [19]: > 100 µM (inactive)
GI50 [20]: > 100 µM (inactive)
GI50 [21]: > 100 µM (inactive)
GI50 [22]: > 100 µM (inactive)
GI50 [23]: > 100 µM (inactive)
GI50 [24]: 64.7 µM (inactive)
GI50 [25]: > 100 µM (inactive)
GI50 [26]: > 100 µM (inactive)
GI50 [27]: > 100 µM (inactive)
GI50 [28]: > 100 µM (inactive)
GI50 [29]: > 100 µM (inactive)
GI50 [30]: > 100 µM (inactive)
GI50 [31]: > 100 µM (inactive)
GI50 [32]: > 100 µM (inactive)
GI50 [33]: > 100 µM (inactive)
GI50 [34]: > 100 µM (inactive)
GI50 [35]: > 100 µM (inactive)
GI50 [36]: > 100 µM (inactive)
GI50 [37]: > 100 µM (inactive)
GI50 [38]: > 100 µM (inactive)
GI50 [39]: > 100 µM
GI50 [40]: > 100 µM (inactive)
GI50 [41]: > 100 µM (inactive)
GI50 [42]: > 100 µM (inactive)
GI50 [43]: > 100 µM (inactive)
GI50 [44]: > 100 µM (inactive)
GI50 [45]: > 100 µM (inactive)
GI50 [46]: > 100 µM (inactive)
GI50 [47]: > 100 µM (inactive)
GI50 [48]: > 100 µM (inactive)
GI50 [49]: > 100 µM (inactive)
GI50 [50]: > 100 µM (inactive)
GI50 [51]: > 100 µM (inactive)
GI50 [52]: > 100 µM (inactive)
GI50 [53]: > 100 µM (inactive)
